Reference: paper PMC7180948, “New Insights into 4-Anilinoquinazolines as Inhibitors of Cardiac Troponin I–Interacting Kinase (TNNi3K)” (Molecules, 2020)

Tests used:
Test in all cases: biochemical
Design in all cases: KINOMEscan competition binding panel (Eurofins DiscoverX), single concentration, percent inhibition
Conditions in all cases: read-out: 15 at 1 µM % inhibition
AURKB = AURKB (Homo sapiens, UniProt Q96GD4)
Procedure, shortened: (§1)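 Kinome-wide profiling (KINOMEscan, >400 human kinases) was run at 1 µM compound.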

CDK5 = CDK5 (Homo sapiens, UniProt Q00535)
Procedure, shortened: as §1

[1] = target: T1, JAK3(JH1domain-catalytic) (Homo sapiens, UniProt P52333)
T1 construct: JH1domain-catalytic
Procedure, shortened: as §1

PRKCE = PRKCE (Homo sapiens, UniProt Q02156)
Procedure, shortened: as §1

ALK(C1156Y) = ALK(C1156Y) (Homo sapiens, UniProt Q9UM73, C1156Y)
Procedure, shortened: as §1

EIF2AK1 = EIF2AK1 (Homo sapiens, UniProt Q9BQI3)
Procedure, shortened: as §1

p38-alpha = target: T2, p38-alpha (Homo sapiens, UniProt Q16539)
T2 construct: gene MAPK14
T2 sequence (Q16539 whole entry): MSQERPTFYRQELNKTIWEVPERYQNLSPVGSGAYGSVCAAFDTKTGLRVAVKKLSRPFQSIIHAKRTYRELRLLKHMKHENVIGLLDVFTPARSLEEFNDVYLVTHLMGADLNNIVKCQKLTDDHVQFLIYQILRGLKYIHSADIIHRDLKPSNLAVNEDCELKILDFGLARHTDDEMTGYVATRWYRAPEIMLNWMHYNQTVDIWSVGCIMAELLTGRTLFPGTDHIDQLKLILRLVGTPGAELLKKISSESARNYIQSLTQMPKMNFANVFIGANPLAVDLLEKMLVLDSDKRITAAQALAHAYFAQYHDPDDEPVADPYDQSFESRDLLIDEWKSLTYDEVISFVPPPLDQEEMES
Procedure, shortened: as §1

CDK8 = CDK8 (Homo sapiens, UniProt P49336)
CDK8, sequence (P49336 whole entry): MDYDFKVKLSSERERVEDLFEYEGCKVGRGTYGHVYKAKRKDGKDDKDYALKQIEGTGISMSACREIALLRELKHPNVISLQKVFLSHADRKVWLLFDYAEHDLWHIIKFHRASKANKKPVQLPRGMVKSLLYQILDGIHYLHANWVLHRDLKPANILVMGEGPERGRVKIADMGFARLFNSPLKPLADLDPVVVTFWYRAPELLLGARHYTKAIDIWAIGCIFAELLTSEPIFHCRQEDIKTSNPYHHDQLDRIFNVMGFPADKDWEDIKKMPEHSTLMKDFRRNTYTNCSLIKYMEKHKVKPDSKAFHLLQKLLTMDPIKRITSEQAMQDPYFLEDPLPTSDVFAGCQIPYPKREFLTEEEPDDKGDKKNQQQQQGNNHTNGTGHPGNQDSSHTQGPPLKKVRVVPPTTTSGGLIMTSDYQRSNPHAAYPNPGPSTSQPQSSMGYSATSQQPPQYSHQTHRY
Procedure, shortened: as §1

FLT3(ITD,D835V) = FLT3(ITD,D835V) (Homo sapiens, UniProt P36888, D835V/ITD)
Procedure, shortened: as §1

PIK3CA(C420R) = PIK3CA(C420R) (Homo sapiens, UniProt P42336, C420R)
Procedure, shortened: as §1

PRKCD = PRKCD (Homo sapiens, UniProt Q05655)
Procedure, shortened: as §1

MAP3K4 = MAP3K4 (Homo sapiens, UniProt Q9Y6R4)
Procedure, shortened: as §1

IRAK1 = IRAK1 (Homo sapiens, UniProt P51617)
Procedure, shortened: as §1

TSSK3 = TSSK3 (Homo sapiens, UniProt Q96PN8)
TSSK3, sequence (Q96PN8 whole entry): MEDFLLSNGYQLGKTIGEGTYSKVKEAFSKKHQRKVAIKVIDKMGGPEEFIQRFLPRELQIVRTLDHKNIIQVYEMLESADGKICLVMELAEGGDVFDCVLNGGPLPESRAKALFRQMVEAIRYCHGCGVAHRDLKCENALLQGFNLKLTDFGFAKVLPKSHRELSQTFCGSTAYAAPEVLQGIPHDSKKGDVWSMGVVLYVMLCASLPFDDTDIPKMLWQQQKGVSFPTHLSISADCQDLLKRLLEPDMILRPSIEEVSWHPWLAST
Procedure, shortened: as §1

LIMK2 = LIMK2 (Homo sapiens, UniProt P53671)
LIMK2, sequence (P53671 whole entry): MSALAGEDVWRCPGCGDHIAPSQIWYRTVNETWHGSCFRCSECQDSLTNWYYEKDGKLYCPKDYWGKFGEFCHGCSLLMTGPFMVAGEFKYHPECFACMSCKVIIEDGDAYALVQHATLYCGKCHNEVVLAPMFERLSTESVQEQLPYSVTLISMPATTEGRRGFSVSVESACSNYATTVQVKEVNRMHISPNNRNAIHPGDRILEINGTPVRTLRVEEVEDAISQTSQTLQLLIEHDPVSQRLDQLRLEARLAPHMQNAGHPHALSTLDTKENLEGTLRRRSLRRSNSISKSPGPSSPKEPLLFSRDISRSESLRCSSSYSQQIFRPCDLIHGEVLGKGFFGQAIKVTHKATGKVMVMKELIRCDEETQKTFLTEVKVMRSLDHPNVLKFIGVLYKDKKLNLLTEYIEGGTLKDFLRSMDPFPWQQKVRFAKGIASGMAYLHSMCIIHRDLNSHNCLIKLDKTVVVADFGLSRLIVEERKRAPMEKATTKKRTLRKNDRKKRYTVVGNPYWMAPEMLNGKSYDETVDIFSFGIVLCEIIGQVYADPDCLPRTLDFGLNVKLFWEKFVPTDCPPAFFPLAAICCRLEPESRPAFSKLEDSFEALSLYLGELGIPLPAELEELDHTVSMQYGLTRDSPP
Procedure, shortened: as §1

JNK2 = target: T3, JNK2 (Homo sapiens, UniProt P45984)
T3 construct: gene MAPK9
T3 sequence (P45984 whole entry): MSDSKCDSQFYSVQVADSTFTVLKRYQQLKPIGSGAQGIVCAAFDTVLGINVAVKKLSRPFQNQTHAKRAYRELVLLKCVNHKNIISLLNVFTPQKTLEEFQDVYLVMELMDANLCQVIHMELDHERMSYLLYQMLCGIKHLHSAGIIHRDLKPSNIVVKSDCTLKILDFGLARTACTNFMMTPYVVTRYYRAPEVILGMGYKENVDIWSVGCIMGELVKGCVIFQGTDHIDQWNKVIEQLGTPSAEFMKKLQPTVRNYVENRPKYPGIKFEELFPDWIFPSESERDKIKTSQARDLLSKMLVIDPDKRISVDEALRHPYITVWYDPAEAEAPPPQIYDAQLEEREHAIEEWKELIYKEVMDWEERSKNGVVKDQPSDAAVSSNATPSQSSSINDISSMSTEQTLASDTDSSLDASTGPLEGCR
Procedure, shortened: as §1

PRKG2 = PRKG2 (Homo sapiens, UniProt Q13237)
Procedure, shortened: as §1

BMX = BMX (Homo sapiens, UniProt P51813)
BMX, sequence (P51813 whole entry): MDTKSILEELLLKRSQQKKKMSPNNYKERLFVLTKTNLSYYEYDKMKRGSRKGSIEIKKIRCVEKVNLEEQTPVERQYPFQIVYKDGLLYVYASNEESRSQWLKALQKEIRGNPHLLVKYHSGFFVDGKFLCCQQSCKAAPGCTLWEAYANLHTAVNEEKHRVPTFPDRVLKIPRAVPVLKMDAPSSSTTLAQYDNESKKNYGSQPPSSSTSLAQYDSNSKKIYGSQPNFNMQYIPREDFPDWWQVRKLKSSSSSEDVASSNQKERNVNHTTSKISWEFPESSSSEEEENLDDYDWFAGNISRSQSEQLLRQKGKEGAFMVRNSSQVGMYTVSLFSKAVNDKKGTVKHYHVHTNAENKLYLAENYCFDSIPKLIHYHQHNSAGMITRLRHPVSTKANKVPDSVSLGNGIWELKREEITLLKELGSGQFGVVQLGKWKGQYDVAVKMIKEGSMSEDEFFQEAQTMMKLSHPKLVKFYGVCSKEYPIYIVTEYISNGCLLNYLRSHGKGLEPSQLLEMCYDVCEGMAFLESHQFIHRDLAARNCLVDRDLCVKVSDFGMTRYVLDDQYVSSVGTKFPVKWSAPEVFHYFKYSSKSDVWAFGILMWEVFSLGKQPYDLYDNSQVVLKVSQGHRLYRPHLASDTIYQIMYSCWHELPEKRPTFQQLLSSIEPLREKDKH
Procedure, shortened: as §1

PAK3 = PAK3 (Homo sapiens, UniProt O75914)
Procedure, shortened: as §1

SGK3 = SGK3 (Homo sapiens, UniProt Q96BR1)
SGK3, sequence (Q96BR1 whole entry): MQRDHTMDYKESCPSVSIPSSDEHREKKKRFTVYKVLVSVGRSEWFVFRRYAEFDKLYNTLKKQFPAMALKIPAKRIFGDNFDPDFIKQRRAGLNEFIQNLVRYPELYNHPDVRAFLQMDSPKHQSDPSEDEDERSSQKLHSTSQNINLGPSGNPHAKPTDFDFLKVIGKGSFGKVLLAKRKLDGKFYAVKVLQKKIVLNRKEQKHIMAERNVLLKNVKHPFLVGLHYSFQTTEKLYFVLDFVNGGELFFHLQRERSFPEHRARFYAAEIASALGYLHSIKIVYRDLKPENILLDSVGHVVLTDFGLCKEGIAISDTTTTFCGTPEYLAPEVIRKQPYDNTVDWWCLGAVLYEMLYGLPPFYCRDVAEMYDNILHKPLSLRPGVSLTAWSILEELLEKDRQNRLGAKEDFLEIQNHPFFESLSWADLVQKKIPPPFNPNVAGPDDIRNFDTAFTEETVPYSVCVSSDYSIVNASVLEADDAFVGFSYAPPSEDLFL
Procedure, shortened: as §1

p38-delta = target: T4, p38-delta (Homo sapiens, UniProt O15264)
T4 construct: gene MAPK13
T4 sequence (O15264 whole entry): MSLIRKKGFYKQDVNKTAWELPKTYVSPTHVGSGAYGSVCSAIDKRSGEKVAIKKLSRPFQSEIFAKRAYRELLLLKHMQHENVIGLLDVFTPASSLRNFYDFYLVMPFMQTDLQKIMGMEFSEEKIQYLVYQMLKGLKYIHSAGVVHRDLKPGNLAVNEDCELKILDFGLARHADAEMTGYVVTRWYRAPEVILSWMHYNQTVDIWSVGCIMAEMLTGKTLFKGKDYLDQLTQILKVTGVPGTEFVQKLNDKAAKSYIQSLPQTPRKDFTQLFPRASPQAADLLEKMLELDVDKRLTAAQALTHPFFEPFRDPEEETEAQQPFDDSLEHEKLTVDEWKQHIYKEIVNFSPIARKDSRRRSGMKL
Procedure, shortened: as §1

[2] = target: EGFR(L747-E749del, A750P) (Homo sapiens, UniProt P00533, A750P/DEL747-749)
EGFR(L747-E749del, A750P), sequence (P00533 with tags, fused parts or gaps DEL747-749/A750P): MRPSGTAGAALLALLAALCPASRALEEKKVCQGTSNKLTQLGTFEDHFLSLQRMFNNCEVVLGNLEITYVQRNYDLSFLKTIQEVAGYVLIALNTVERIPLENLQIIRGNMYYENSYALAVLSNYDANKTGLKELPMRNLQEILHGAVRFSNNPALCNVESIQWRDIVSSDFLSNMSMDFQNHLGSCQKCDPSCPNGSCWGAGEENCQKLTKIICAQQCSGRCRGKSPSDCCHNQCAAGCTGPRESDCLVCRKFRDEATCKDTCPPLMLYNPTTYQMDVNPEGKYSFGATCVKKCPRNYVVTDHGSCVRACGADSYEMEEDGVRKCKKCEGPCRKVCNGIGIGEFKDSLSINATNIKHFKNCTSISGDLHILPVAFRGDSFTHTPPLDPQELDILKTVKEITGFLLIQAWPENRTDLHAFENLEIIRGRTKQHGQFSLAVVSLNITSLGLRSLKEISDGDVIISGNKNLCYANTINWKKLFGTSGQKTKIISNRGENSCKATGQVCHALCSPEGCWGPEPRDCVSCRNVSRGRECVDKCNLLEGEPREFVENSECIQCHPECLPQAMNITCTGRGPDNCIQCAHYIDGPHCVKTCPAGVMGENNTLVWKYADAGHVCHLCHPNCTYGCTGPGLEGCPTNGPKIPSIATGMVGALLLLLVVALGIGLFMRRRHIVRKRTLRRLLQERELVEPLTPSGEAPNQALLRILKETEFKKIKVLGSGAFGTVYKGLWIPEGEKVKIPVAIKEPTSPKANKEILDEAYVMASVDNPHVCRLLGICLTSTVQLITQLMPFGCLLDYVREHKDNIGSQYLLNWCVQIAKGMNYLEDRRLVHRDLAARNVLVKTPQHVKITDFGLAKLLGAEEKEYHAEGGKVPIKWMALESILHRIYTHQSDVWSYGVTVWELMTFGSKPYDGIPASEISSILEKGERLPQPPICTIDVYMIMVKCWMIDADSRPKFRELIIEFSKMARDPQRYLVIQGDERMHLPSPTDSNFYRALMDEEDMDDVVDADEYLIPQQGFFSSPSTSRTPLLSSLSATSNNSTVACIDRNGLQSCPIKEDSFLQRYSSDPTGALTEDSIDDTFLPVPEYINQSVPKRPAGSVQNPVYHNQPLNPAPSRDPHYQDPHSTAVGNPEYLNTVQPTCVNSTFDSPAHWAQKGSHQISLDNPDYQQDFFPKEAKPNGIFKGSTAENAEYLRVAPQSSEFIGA
Procedure, shortened: as §1

DYRK1B = DYRK1B (Homo sapiens, UniProt Q9Y463)
Procedure, shortened: as §1

TEC = TEC (Homo sapiens, UniProt P42680)
Procedure, shortened: as §1

Question: With `CNS(=O)(=O)c1ccc(N(C)C)c(Nc2nc(C)nc3cc(OC)c(OC)cc23)c1` [compound 15, 3-((6,7-dimethoxy-2-methylquinazolin-4-yl)amino)-4-(dimethylamino)-N-methylbenzenesulfonamide] as the compound, how does the inhibition at 1 µM (AURKB) read?
Answer: Its inhibition at 1 µM is 3%.

Question: What about the inhibition at 1 µM (CDK5) of the same compound?
Answer: Its inhibition at 1 µM is 3%.

Question: What about the inhibition at 1 µM [1] of the same compound?
Answer: Its inhibition at 1 µM is 10%.

Question: And the inhibition at 1 µM (PRKCE)?
Answer: Its inhibition at 1 µM is 11%.

Question: And the inhibition at 1 µM (ALK(C1156Y))?
Answer: Its inhibition at 1 µM is 4%.

Question: And the inhibition at 1 µM (EIF2AK1)?
Answer: Its inhibition at 1 µM is 4%.

Question: And the inhibition at 1 µM (p38-alpha)?
Answer: Its inhibition at 1 µM is 0%.

Question: What about the inhibition at 1 µM (CDK8) of the same compound?
Answer: Its inhibition at 1 µM is 0%.

Question: What about the inhibition at 1 µM (FLT3(ITD,D835V)) of the same compound?
Answer: Its inhibition at 1 µM is 26%.

Question: What about the inhibition at 1 µM (PIK3CA(C420R)) of the same compound?
Answer: The inhibition at 1 µM was 11%.

Question: And the inhibition at 1 µM (PRKCD)?
Answer: The inhibition at 1 µM was 1%.

Question: What about the inhibition at 1 µM (MAP3K4) of the same compound?
Answer: Its inhibition at 1 µM is 0%.

Question: And the inhibition at 1 µM (IRAK1)?
Answer: Its inhibition at 1 µM is 11%.

Question: What about the inhibition at 1 µM (TSSK3) of the same compound?
Answer: Its inhibition at 1 µM is 28%.

Question: And the inhibition at 1 µM (LIMK2)?
Answer: The inhibition at 1 µM was 9%.

Question: And the inhibition at 1 µM (JNK2)?
Answer: The inhibition at 1 µM was 4%.

Question: And the inhibition at 1 µM (PRKG2)?
Answer: Its inhibition at 1 µM is 21%.

Question: And the inhibition at 1 µM (BMX)?
Answer: Its inhibition at 1 µM is 10%.

Question: And the inhibition at 1 µM (PAK3)?
Answer: Its inhibition at 1 µM is 4%.

Question: And the inhibition at 1 µM (SGK3)?
Answer: The inhibition at 1 µM was 19%.

Question: And the inhibition at 1 µM (p38-delta)?
Answer: The inhibition at 1 µM was 17%.

Question: And the inhibition at 1 µM [2]?
Answer: Its inhibition at 1 µM is 0%.

Question: What about the inhibition at 1 µM (DYRK1B) of the same compound?
Answer: The inhibition at 1 µM was 17%.

Question: And the inhibition at 1 µM (TEC)?
Answer: Its inhibition at 1 µM is 13%.
